The values that follow come from patent US20190298840A1, “FORMULATIONS COMPRISING HETEROCYCLIC RING SYSTEMS AND USES THEREOF” (Particle Sciences, Inc., priority 2016, published 2019).

The test system of assay [1] is rabbit IgG. As to the kind of experiment: ELISA with pyridinium-biotin construct on IgG coated, BSA blocked wells vs BSA only wells (FIG. 20). The class given is binding. The conditions noted are these: PBS buffer; femtomole range of construct; avidin-HRP detection. The text has this:
Another variation of ELISA assay is one in which the plate wells are first coated with rabbit IgG. After a wash with PBS buffer, the IgG coated wells are blocked with bovine serum albumin (BSA) to saturate the remaining surface of the wells in order to lower background noise. A set of control wells are coated and blocked with BSA only as described above. The IgG coated and BSA blocked wells are then reacted with pyridinium-biotin construct in PBS buffer. Increasing amounts of with pyridinium-biotin construct in femtomole range are added in different wells. Those wells are washed with PBS buffer and reacted with constant amount of avidin-Horseradish peroxidase (HRP) in PBS. The colorimetric product of the reaction is then detected by an ELISA plate reader.

Assay [2] addresses human serum albumin (HSA) (Homo sapiens, UniProt P02768). The assay can be described thus: Microscale thermophoresis binding affinity with HSA (Monolith NT.115). As to conditions: construct 500 nM, HSA 125 μM-3.5 nM, compared with IgG. On the procedure: (§1) Binding affinities of pyridinium constructs with macromolecules were measure using Monolith NT.115 system developed by Nano Temper technology (https://nanotempertech.com/monolith/). The Monolith NT.115 equipment measures the strength of the interactions between a fluorescently labeled or intrinsically fluorescent sample and a binding partner such as a macromolecule are measured while a temperature gradient is applied over time. The molecular mobility of a fluorescently labeled construct in a thermo gradient when alone and in presence of increasing concentrations of binding partner is compared. From this, binding affinity (Kd) is calculated from a fitted curve that plots normalized fluorescence against concentration of ligand.
(§2) The IgG protein was tested at a concentration range of 12.5 μM-350 pM and the pyridinium-fluorescein construct was at a concentration of 500 nM. Likewise, for experiments involving HSA, the HSA protein was at a concentration range of 125 μM-3.5 nM and the pyridinium-fluorescein construct was at a concentration of 500 nM.
The experiment was repeated with human serum albumin (HSA) instead of IgG under similar conditions. The results of the binding affinity curve at increasing concentrations of HSA in two different solutions (PBS & Saline) are shown in FIG. 17.

Assay [3] addresses Immunoglobulin G (IgG). As to the kind of experiment: Microscale thermophoresis binding affinity with IgG (Monolith NT.115). The conditions noted are these: construct 500 nM, IgG 12.5 μM-350 pM. On the procedure: as §1
The experiment was conducted to measure the binding affinity of the pyridinium construct containing fluorescein with increasing concentrations of Immunoglobulin G (IgG) in presence of PBS buffer and saline. The results of the binding affinity curve at increasing concentrations of IgG in two different solutions (PBS & Saline) are shown in FIG. 16.
as §2
For orientation: Microscale thermophoresis detects binding through changes in fluorescence in a small temperature gradient.

For assay [4], the system named is IgG. The assay can be described thus: IgG binding experiment, free IgG measured after overnight binding (FIG. 10). Also on record: species or system human. The conditions noted are these: PBS and water conditions.
Protocol: Human IgG1 or albumin shall be used as the biomolecule of interest.
In separate trials, the experiment was done in presence of water and PBS buffer solutions. The percentage of unbound IgG and pyridinium bound IgG were determined by measuring the free IgG (protein) after the protein was allowed to bind overnight with pyridinium constructs.

Sequence of human serum albumin (HSA) (P02768 25-609): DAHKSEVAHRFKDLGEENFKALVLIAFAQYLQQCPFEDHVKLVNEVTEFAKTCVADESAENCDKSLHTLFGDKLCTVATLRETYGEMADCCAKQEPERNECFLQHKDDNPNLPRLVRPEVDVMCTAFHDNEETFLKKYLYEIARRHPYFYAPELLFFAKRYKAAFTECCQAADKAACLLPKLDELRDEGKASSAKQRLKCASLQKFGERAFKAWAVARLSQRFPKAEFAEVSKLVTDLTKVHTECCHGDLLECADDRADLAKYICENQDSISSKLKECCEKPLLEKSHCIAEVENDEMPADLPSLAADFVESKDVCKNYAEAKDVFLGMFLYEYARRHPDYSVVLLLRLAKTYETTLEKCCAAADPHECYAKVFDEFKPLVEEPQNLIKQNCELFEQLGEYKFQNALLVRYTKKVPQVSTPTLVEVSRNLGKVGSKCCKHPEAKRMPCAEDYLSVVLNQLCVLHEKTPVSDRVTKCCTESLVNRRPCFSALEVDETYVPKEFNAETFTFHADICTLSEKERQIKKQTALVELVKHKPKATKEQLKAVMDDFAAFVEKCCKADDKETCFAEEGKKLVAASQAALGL

For `O=C(CCCCC1SCC2NC(=O)NC21)NCC[n+]1ccccc1` (stereo not drawn) [pyridinium constructs, 1-(2-(5-(2-oxohexahydro-1H-thieno[3,4-d]imidazol-4-yl)pentanamido)ethyl)pyridinium], the “binding affinity in ELISA, IgG vs BSA dilution curves” value in assay [1] is “strong binding affinity of IgG even at lower concentrations when compared with that of BSA”.
Take `O=C(NCC[n+]1ccccc1)c1ccc2c(c1)C1(OC2=O)c2ccc(O)cc2Oc2cc(O)ccc21` [pyridinium-fluorescein construct, 1-(2-(3′,6′-dihydroxy-3-oxo-3H-spiro[isobenzofuran-1,9′-xanthene]-6-ylcarboxamido)ethyl)pyridinium]: the figures for the “binding affinity to HSA” value in assay [2] (PBS solution) and in assay [2] (saline solution) were “much lower than that of IgG” and “comparable to that of IgG”, respectively. Also, the Kd – broadly, a measure of binding affinity in units of concentration – in assay [3] (in PBS) was found to be 20 nM; in assay [3] (in saline), 1500 nM.
Regarding `CCCCCCCCCCCCCCCC[N+](C)(C)C.[Br-]` [CTAB, Cetyl trimethylammonium bromide], the “binding to IgG” value in assay [4] is recorded as “did not bind to the IgG protein”.
